# System: not listed separately
# Experiment: Determination of pKa (proton acidity constant of SO2-NH-CO-)
# Type: physicochemical
# Details: not given
# Text: The pKa values represent the proton acidity constants of SO2 --NH--CO--.
row,SMILES,pKa
1,"O=C(NC1CCCCC1)NS(=O)(=O)c1cnccc1NC1CCCCC1 [Example 1, N-((4(-cyclohexylamino)pyrid-3-yl)sulfonyl)-N'-cyclohexylurea]",9.02
2,"O=C(NC1CCCCC1)NS(=O)(=O)c1cnccc1NC1CCCCCC1 [Example 2, N-((4-(cycloheptylamino)pyrid-3-yl)sulfonyl)-N'-cyclohexylurea]",9.39
3,"O=C(NC1CCCCCCC1)NS(=O)(=O)c1cnccc1NC1CCCCCCC1 [Example 3, N-((4-(cyclooctylamino)pyrid-3-yl)sulfonyl-N'-cyclooctylurea nitrate]",7.74
4,"O=C(NC1CCCCCCC1)NS(=O)(=O)c1cnccc1NC1CCCCC1 [Example 7, N-((4-(cyclohexylamino)pyrid-3-yl)sulfonyl)-N'-cyclooctylurea]",9.13
5,"O=C(NC1CCCCCC1)NS(=O)(=O)c1cnccc1NC1CCCCCCC1 [Example 8, N-((4-(cyclooctylamino)pyrid-3-yl)sulfonyl)-N'-cycloheptylurea]",9.15
6,"O=C(NC1CCCCC1)NS(=O)(=O)c1cnccc1NC1CCCCCCC1 [Example 10, N-((4-(cyclooctylamino)pyrid-3-yl)sulfonyl)-N'-cyclohexylurea]",8.95
7,"Cc1cccc(Nc2ccncc2S(=O)(=O)NC(=O)NC(C)C)c1 [Torasemide, reference compound]",6.82

# System: Cl^- passage in the kidneys
# Experiment: Inhibition of Cl- passage in the kidneys in vivo
# Details: not given
# Text: The 50% inhibitory concentration for Cl^- passage in the kidneys in vivo is decreased, in the case of the compound of Example 8 by about 50% relative to Torasemide and in the case of the compound of Example 18 by 75%.
row,SMILES,decrease of the 50% inhibitory concentration for Cl- passage in the kidneys relative to Torasemide
1,"O=C(NC1CCCCCC1)NS(=O)(=O)c1cnccc1NC1CCCCCCC1 [Example 8, N-((4-(cyclooctylamino)pyrid-3-yl)sulfonyl)-N'-cycloheptylurea]",about 50%
2,"O=C(NC1CCCCCC1)NS(=O)(=O)c1cnccc1NC1CCCCCC1 [Example 18, N-((4-(cycloheptylamino)pyrid-3-yl)sulfonyl)-N'-cycloheptylurea]",75%

# System: not listed separately
# Experiment: Determination of partition coefficients between n-octanol and water
# Type: physicochemical
# Details: pH=7.4, logarithm to base 10
# Experimental: The coefficients of partition between n-octanol and water were determined at pH=7.4 by conventional techniques and are expressed as logarithms to base 10 (Log P).
row,SMILES,logD
1,"O=C(NC1CCCCC1)NS(=O)(=O)c1cnccc1NC1CCCCC1 [Example 1, N-((4(-cyclohexylamino)pyrid-3-yl)sulfonyl)-N'-cyclohexylurea]",1.33
2,"O=C(NC1CCCCC1)NS(=O)(=O)c1cnccc1NC1CCCCCC1 [Example 2, N-((4-(cycloheptylamino)pyrid-3-yl)sulfonyl)-N'-cyclohexylurea]",1.67
3,"O=C(NC1CCCCCCC1)NS(=O)(=O)c1cnccc1NC1CCCCCCC1 [Example 3, N-((4-(cyclooctylamino)pyrid-3-yl)sulfonyl-N'-cyclooctylurea nitrate]",2.7
4,"O=C(NC1CCCCCCC1)NS(=O)(=O)c1cnccc1NC1CCCCC1 [Example 7, N-((4-(cyclohexylamino)pyrid-3-yl)sulfonyl)-N'-cyclooctylurea]",2.07
5,"O=C(NC1CCCCCC1)NS(=O)(=O)c1cnccc1NC1CCCCCCC1 [Example 8, N-((4-(cyclooctylamino)pyrid-3-yl)sulfonyl)-N'-cycloheptylurea]",2.45
6,"O=C(NC1CCCCC1)NS(=O)(=O)c1cnccc1NC1CCCCCCC1 [Example 10, N-((4-(cyclooctylamino)pyrid-3-yl)sulfonyl)-N'-cyclohexylurea]",2.06
7,"Cc1cccc(Nc2ccncc2S(=O)(=O)NC(=O)NC(C)C)c1 [Torasemide, reference compound]",0.449

# Biological target: T1, Na^+ /K^+ /2Cl^- cotransport (Rattus norvegicus, UniProt E9PTX9)
# T1 construct: erythrocyte membrane in normotensive rats; from tissue; host or cells: rat erythrocytes
# T1 sequence (E9PTX9 1-1203): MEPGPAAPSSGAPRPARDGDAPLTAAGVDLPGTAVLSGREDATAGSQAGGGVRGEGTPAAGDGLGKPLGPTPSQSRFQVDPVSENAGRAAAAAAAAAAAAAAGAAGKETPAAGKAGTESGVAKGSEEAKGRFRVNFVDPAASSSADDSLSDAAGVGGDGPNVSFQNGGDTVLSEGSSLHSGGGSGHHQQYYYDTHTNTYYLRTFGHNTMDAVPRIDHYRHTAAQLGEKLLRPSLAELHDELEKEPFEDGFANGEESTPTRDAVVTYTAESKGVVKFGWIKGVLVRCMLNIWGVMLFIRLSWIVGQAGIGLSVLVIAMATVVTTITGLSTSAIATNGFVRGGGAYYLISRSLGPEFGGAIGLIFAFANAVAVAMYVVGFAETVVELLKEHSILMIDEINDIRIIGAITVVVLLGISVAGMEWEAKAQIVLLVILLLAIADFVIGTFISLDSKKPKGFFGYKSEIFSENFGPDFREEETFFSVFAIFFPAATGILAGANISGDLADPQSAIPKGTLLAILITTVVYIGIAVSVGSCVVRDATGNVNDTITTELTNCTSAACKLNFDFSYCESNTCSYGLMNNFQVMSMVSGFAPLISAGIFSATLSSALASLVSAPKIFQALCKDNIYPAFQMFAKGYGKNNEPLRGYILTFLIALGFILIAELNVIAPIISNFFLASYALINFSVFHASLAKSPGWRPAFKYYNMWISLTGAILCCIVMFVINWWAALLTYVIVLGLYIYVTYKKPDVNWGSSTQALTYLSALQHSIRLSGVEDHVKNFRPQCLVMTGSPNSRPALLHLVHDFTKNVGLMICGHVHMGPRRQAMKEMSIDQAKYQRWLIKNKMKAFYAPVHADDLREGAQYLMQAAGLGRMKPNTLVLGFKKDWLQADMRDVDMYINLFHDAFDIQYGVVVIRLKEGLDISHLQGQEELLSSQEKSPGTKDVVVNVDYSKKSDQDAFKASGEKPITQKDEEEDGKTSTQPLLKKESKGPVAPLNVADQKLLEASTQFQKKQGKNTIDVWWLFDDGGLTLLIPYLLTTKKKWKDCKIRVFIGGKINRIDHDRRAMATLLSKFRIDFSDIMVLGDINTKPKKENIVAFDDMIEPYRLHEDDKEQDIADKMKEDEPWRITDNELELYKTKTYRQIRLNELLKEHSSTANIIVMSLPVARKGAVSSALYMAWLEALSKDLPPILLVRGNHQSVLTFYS
# Experiment: Inhibition of Na+/K+/2Cl- cotransport, erythrocyte membrane in normotensive rats
# Type: in vivo
# Details: not given
# Text: (§1) The 50% inhibitory concentration for Na^+ /K^+ /2Cl^- cotransport in vivo is decreased, in the case of the compound of Example 3, by about 60% relative to Torasemide (luminal membrane of the ascending branch of the loop of Henle in the nephron of perfused rabbits (Arzneim. Forsch. (1988) 38 (1a), 151-152)), and by 85% relative to Torasemide in the case of the compound of Example 10 (erythrocyte membrane in normotensive rats).
# This decrease of the 50% inhibitory concentration of the Torasemide for Na^+ /K^+ /[…] co-transport (erythrocyte membrane in normotensive rats) reachs even 90% in the case of the compound of Example 18.
row,SMILES,decrease of the 50% inhibitory concentration for Na+/K+/2Cl- cotransport relative to Torasemide [%]
1,"O=C(NC1CCCCC1)NS(=O)(=O)c1cnccc1NC1CCCCCCC1 [Example 10, N-((4-(cyclooctylamino)pyrid-3-yl)sulfonyl)-N'-cyclohexylurea]",85
2,"O=C(NC1CCCCCC1)NS(=O)(=O)c1cnccc1NC1CCCCCC1 [Example 18, N-((4-(cycloheptylamino)pyrid-3-yl)sulfonyl)-N'-cycloheptylurea]",90

# Biological target: T2, Na^+ /K^+ /2Cl^- cotransport (Oryctolagus cuniculus, UniProt P55015)
# T2 construct: luminal membrane of the ascending branch of the loop of Henle in the nephron of perfused rabbits; from tissue; host or cells: rabbit nephron, ascending branch of the loop of Henle
# T2 sequence (P55015 1-1099): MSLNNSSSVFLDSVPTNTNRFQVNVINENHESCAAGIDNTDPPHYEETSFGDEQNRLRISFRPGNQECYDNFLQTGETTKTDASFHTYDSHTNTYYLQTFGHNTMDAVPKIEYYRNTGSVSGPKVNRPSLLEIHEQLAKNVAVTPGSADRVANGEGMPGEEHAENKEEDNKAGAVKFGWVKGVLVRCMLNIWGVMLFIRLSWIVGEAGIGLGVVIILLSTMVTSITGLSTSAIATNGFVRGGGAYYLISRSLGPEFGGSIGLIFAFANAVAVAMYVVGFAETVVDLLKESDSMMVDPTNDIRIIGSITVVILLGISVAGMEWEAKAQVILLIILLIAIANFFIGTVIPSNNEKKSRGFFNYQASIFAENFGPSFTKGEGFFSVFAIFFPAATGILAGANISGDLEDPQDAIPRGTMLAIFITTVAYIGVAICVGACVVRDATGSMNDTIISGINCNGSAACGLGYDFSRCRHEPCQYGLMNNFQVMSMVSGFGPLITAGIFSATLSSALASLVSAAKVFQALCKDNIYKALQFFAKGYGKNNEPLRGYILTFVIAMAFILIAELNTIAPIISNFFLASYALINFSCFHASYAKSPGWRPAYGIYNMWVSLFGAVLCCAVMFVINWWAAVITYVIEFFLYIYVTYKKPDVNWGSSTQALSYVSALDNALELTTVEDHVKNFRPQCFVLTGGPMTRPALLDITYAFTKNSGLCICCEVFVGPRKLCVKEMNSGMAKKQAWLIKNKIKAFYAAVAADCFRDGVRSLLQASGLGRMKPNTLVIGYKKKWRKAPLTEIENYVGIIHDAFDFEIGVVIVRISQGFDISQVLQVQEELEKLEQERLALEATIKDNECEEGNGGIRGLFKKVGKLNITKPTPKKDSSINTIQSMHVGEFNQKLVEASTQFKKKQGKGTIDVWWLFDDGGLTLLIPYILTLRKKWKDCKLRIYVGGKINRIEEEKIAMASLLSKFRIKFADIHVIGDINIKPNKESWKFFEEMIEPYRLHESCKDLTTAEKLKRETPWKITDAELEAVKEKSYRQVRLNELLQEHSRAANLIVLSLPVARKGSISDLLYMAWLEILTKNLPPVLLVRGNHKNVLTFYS
# Experiment: Inhibition of Na+/K+/2Cl- cotransport, luminal membrane of the ascending branch of the loop of Henle in the nephron of perfused rabbits
# Details: in vivo
# Text: as §1
row,SMILES,decrease of the 50% inhibitory concentration for Na+/K+/2Cl- cotransport relative to Torasemide
1,"O=C(NC1CCCCCCC1)NS(=O)(=O)c1cnccc1NC1CCCCCCC1 [Example 3, N-((4-(cyclooctylamino)pyrid-3-yl)sulfonyl-N'-cyclooctylurea nitrate]",about 60%

# Reference: US5166162A, “Pyridylsulfonylurea and pyridylsulfonylthiourea compounds” (Adir et Compagnie, priority 1990, dated 1992)
